Data taken from the NIST ThermoML archive (doi:10.1016/j.jct.2019.03.022).

Conditions: Liquid, Frequency=5 MHz, Pulse-echo method

Cc1ccc(C)cc1 [1,4-dimethylbenzene]
Conditions | speed of sound [m/s]
305.93 K, 3690 kPa | 1296.5
305.97 K, 40270 kPa | 1464.5
305.98 K, 5250 kPa | 1304.4
305.98 K, 45030 kPa | 1483.5
305.98 K, 50870 kPa | 1506
305.99 K, 1000 kPa | 1281.8
305.99 K, 35160 kPa | 1443.6
306 K, 4900 kPa | 1302.5
306 K, 13840 kPa | 1347.7
306 K, 30490 kPa | 1423.8
306.02 K, 2050 kPa | 1287.2
306.03 K, 9400 kPa | 1325.6
306.05 K, 6960 kPa | 1312.9
306.06 K, 19900 kPa | 1376.2
306.07 K, 2050 kPa | 1287.1
306.07 K, 16500 kPa | 1360.1
306.07 K, 24630 kPa | 1397.8
306.1 K, 29650 kPa | 1419.7
306.14 K, 26930 kPa | 1407.8
306.18 K, 28370 kPa | 1413.9
323.47 K, 41260 kPa | 1410.2
323.47 K, 49810 kPa | 1445.3
323.47 K, 59650 kPa | 1483.5
323.48 K, 34540 kPa | 1381.1
323.48 K, 54770 kPa | 1464.8
323.48 K, 55430 kPa | 1467.4
323.49 K, 46870 kPa | 1433.4
323.51 K, 49380 kPa | 1443.5
323.51 K, 65910 kPa | 1506.7
323.52 K, 30290 kPa | 1361.8
323.53 K, 11470 kPa | 1269.8
323.54 K, 1060 kPa | 1211.5
323.54 K, 6060 kPa | 1240.3
323.54 K, 44230 kPa | 1422.4
323.54 K, 45010 kPa | 1425.6
323.55 K, 18570 kPa | 1306.1
323.56 K, 210 kPa | 1206.4
323.57 K, 490 kPa | 1208.1
323.57 K, 2600 kPa | 1220.4
323.57 K, 10070 kPa | 1262.1
323.57 K, 20900 kPa | 1317.5
323.57 K, 39580 kPa | 1402.7
323.57 K, 44830 kPa | 1424.7
323.58 K, 5070 kPa | 1234.5
323.58 K, 6090 kPa | 1240.3
323.58 K, 11110 kPa | 1267.7
323.58 K, 34830 kPa | 1382
323.59 K, 7490 kPa | 1248
323.59 K, 17890 kPa | 1302.5
323.59 K, 25130 kPa | 1337.7
323.59 K, 30210 kPa | 1361.3
323.6 K, 15130 kPa | 1288.6
335.95 K, 55000 kPa | 1427.5
335.95 K, 65380 kPa | 1467.9
335.96 K, 61040 kPa | 1451.3
335.97 K, 50590 kPa | 1409.6
335.98 K, 1230 kPa | 1164
335.98 K, 2630 kPa | 1172.6
335.98 K, 5600 kPa | 1190.4
335.98 K, 45230 kPa | 1387.1
335.99 K, 280 kPa | 1158
335.99 K, 570 kPa | 1159.8
335.99 K, 10300 kPa | 1217.5
335.99 K, 20370 kPa | 1271.4
336 K, 10270 kPa | 1217.2
336 K, 24830 kPa | 1293.8
336 K, 30890 kPa | 1323
336 K, 34840 kPa | 1341.2
336.01 K, 14980 kPa | 1243.1
336.01 K, 20750 kPa | 1273.3
336.02 K, 40670 kPa | 1367.2
336.03 K, 41380 kPa | 1370.3
336.05 K, 41270 kPa | 1369.8
336.06 K, 31080 kPa | 1323.6
348.25 K, 40 kPa | 1108.8
348.27 K, 2120 kPa | 1122.5
348.28 K, 4090 kPa | 1135.2
348.29 K, 2590 kPa | 1125.5
348.3 K, 2110 kPa | 1122.3
348.32 K, 1270 kPa | 1116.8
348.32 K, 8600 kPa | 1162.9
348.32 K, 8900 kPa | 1164.7
348.35 K, 10880 kPa | 1176.3
348.36 K, 15220 kPa | 1201.1
348.36 K, 20050 kPa | 1227.6
348.37 K, 14620 kPa | 1197.7
348.37 K, 60580 kPa | 1413.4
348.39 K, 59820 kPa | 1410.3
348.39 K, 64180 kPa | 1427.6
348.4 K, 64670 kPa | 1429.6
348.41 K, 59890 kPa | 1410.6
348.42 K, 45170 kPa | 1348.7
348.42 K, 49930 kPa | 1369.4
348.42 K, 54750 kPa | 1389.6
348.43 K, 29340 kPa | 1275
348.43 K, 33900 kPa | 1297.2
348.43 K, 39830 kPa | 1324.8
348.45 K, 24930 kPa | 1252.9
355.89 K, 12280 kPa | 1158.2
355.92 K, 15640 kPa | 1177.7
355.94 K, 920 kPa | 1085.7
355.94 K, 20950 kPa | 1207.3
355.95 K, 490 kPa | 1082.6
355.95 K, 2620 kPa | 1097
355.95 K, 25050 kPa | 1229.2
355.95 K, 31130 kPa | 1260.2
355.96 K, 10930 kPa | 1149.9
355.98 K, 270 kPa | 1081
355.98 K, 5370 kPa | 1115.1
355.98 K, 65160 kPa | 1410.3
356 K, 59390 kPa | 1387.1
356.02 K, 41360 kPa | 1308.9
356.02 K, 45060 kPa | 1325.7
356.04 K, 54960 kPa | 1368.5
356.05 K, 34600 kPa | 1276.9
356.08 K, 50520 kPa | 1349.5
373.53 K, 2520 kPa | 1031.7
373.53 K, 5450 kPa | 1052.5
373.54 K, 2530 kPa | 1031.7
373.55 K, 950 kPa | 1020.1
373.57 K, 44340 kPa | 1271.8
373.58 K, 570 kPa | 1017.1
373.58 K, 49640 kPa | 1296.2
373.59 K, 240 kPa | 1014.6
373.6 K, 10260 kPa | 1084.6
373.6 K, 19750 kPa | 1143.4
373.6 K, 29800 kPa | 1199.1
373.6 K, 29850 kPa | 1199.3
373.6 K, 35000 kPa | 1226.1
373.61 K, 14920 kPa | 1114.2
373.61 K, 59070 kPa | 1337.5
373.62 K, 20290 kPa | 1146.4
373.62 K, 39790 kPa | 1249.8
373.62 K, 40800 kPa | 1254.9
373.62 K, 58970 kPa | 1337.1
373.63 K, 24920 kPa | 1172.7
373.63 K, 54980 kPa | 1319.8
373.64 K, 64880 kPa | 1361.7
398.19 K, 37260 kPa | 1168.3
398.2 K, 220 kPa | 923.76
398.2 K, 29920 kPa | 1127.9
398.2 K, 37270 kPa | 1168.3
398.2 K, 40070 kPa | 1182.9
398.2 K, 54810 kPa | 1254.7
398.2 K, 60130 kPa | 1278.8
398.21 K, 500 kPa | 926.17
398.21 K, 34890 kPa | 1155.4
398.21 K, 44950 kPa | 1207.5
398.21 K, 64730 kPa | 1299
398.22 K, 1040 kPa | 930.76
398.22 K, 20010 kPa | 1068.5
398.22 K, 24890 kPa | 1098.6
398.23 K, 50040 kPa | 1232.3
398.24 K, 5190 kPa | 964.55
398.24 K, 15110 kPa | 1036.5
398.24 K, 31220 kPa | 1135.2
398.25 K, 2490 kPa | 942.77
398.25 K, 10300 kPa | 1002.9
398.25 K, 19720 kPa | 1066.6
398.25 K, 31220 kPa | 1135.2
398.26 K, 12650 kPa | 1019.5
422.57 K, 5690 kPa | 886.27
422.65 K, 2630 kPa | 858.44
422.7 K, 14830 kPa | 959.38
422.72 K, 550 kPa | 838.3
422.72 K, 50170 kPa | 1171.8
422.73 K, 190 kPa | 834.7
422.73 K, 28590 kPa | 1052.1
422.73 K, 54780 kPa | 1194.6
422.74 K, 1230 kPa | 844.88
422.74 K, 9190 kPa | 915.48
422.74 K, 44830 kPa | 1144.4
422.75 K, 780 kPa | 840.37
422.75 K, 10020 kPa | 922.14
422.75 K, 19940 kPa | 995.75
422.75 K, 24810 kPa | 1028.2
422.75 K, 29890 kPa | 1060
422.75 K, 64580 kPa | 1240.2
422.76 K, 59900 kPa | 1218.7
422.77 K, 34850 kPa | 1089.3
422.77 K, 40720 kPa | 1122.3
446.94 K, 5130 kPa | 800.91
446.99 K, 10180 kPa | 848.37
446.99 K, 14830 kPa | 887.97
447 K, 19890 kPa | 927.32
447.01 K, 7300 kPa | 821.88
447.02 K, 1020 kPa | 756.94
447.02 K, 24900 kPa | 963.22
447.03 K, 22500 kPa | 946.32
447.07 K, 300 kPa | 748.43
447.07 K, 580 kPa | 751.73
447.08 K, 49880 kPa | 1113.3
447.08 K, 64750 kPa | 1187.3
447.09 K, 30510 kPa | 1000.7
447.11 K, 54450 kPa | 1137
447.12 K, 40150 kPa | 1059.5
447.13 K, 35270 kPa | 1030.4
447.13 K, 45010 kPa | 1086.9
447.13 K, 59760 kPa | 1163.3

Cc1ccccc1 [toluene]
Conditions | speed of sound [m/s]
323.29 K, 10200 kPa | 1253.2
323.32 K, 20480 kPa | 1305.4
323.32 K, 20600 kPa | 1305.9
323.34 K, 31540 kPa | 1356.7
323.37 K, 44870 kPa | 1413.5
323.38 K, 60790 kPa | 1475.5
323.39 K, 60820 kPa | 1475.5
373.82 K, 7570 kPa | 1046.5
373.83 K, 2170 kPa | 1007.9
373.83 K, 21270 kPa | 1132.5
373.85 K, 35520 kPa | 1209.3
373.87 K, 64470 kPa | 1340.7
373.9 K, 50350 kPa | 1280
422.93 K, 6580 kPa | 863.73
422.98 K, 20740 kPa | 974.49
423.01 K, 36450 kPa | 1073.4
423.04 K, 56200 kPa | 1176.9

O [water]
Conditions | speed of sound [m/s]
306.13 K, 1030 kPa | 1517.3
306.14 K, 4950 kPa | 1524
306.15 K, 19980 kPa | 1549.5
306.15 K, 59750 kPa | 1616.5
306.16 K, 29980 kPa | 1566.5
306.16 K, 39950 kPa | 1583.3
306.16 K, 49950 kPa | 1600.1
357.97 K, 20280 kPa | 1593.1
357.99 K, 400 kPa | 1553.7
358 K, 30380 kPa | 1612.5
358 K, 40230 kPa | 1630.9
358.01 K, 50080 kPa | 1649
358.03 K, 59980 kPa | 1666.8
420.93 K, 1180 kPa | 1471.5
421.06 K, 20130 kPa | 1520.6
421.12 K, 40030 kPa | 1568.6
421.2 K, 59900 kPa | 1613.1
